According to article PMC8156061, “Design, Synthesis, and Anticancer Screening for Repurposed Pyrazolo[3,4-d]pyrimidine Derivatives on Four Mammalian Cancer Cell Lines” (Molecules, 2021):

How the values were obtained:
A549 cells [1] = test: Cell viability, MTT assay, A549; format: cell-based, human; details: for first concentration with significant reduction in cell viability / IC50: A549, 48 h; for first concentration with significant reduction in cell viability: versus control; for IC50: Homo sapiens
Procedure: (§1) A (4,5-dimethylthiazol-2-yl)-2,5-diphenyltetrazolium) MTT assay was used for the determination of the cytotoxic effects of three compounds (5, 6, and 7) in vitro (Figure 9). Hela, HT1080, Caco-2, and A549 cells were treated with various concentrations of the compounds employed in the current study (0, 1, 10, 50, 100, 500 µM) for 48 h.
(§2) Figure 9 Normalised percentage cell viability inhibition of compounds 5 and 7, measured by three independent MTT assays in A549 and Caco-2 cell lines and by three independent experiments with crystal violet staining in Hela and HT1080 cell lines. Cells were treated with different concentrations (from 1 and up to 500 µM) of the compounds for 48 h, * = first concentration significant reduction in cell viability in comparison to the control.
(§3) Human fibrosarcoma (HT1080), cervical cancer (Hela), colorectal cancer (Caco-2), and human lung cancer cell lines (A549) were purchased from […] (ECACC, Salisbury, UK). Cervical cancer cells (Hela) and fibrosarcoma cells (HT-1080) were maintained in a RPMI medium supplemented with 10% foetal bovine serum (FBS) and were expanded at 37 °C and 5% CO2. Caco-2 and A549 cells were grown in Dulbecco’s modified eagle medium (DMEM)-high glucose (biowest, Riverside, MO, USA) enriched with (10% v/v) (foetal bovine serum) FBS (biowest, Riverside, MO, USA) and antibiotics (100 U/mL penicillin, 100 μg mL streptomycin) (Lonza, Basel, Switzerland). Cells were maintained at 37 °C in an incubator with 5% CO2 atmosphere. Part of the experiments were carried out in CERRMA (Center of Excellence for Research in Regenerative Medicine and its Applications), Faculty of Medicine, Alexandria University.
(§4) The cell viability of A549 and Caco-2 cells was measured using MTT assays. Cells were incubated for 48 h in triplicates with the compounds of interest. […] Cells were seeded in 96-well plates at a density of 5 × 10^3 cells/well and were maintained in complete media. After adherence for 48 h, cells were treated with different concentrations of newly synthesized compounds ranging from […]. The plates were incubated at 5% CO2 and 37 °C. After 48 h, the medium was discarded, and cells were incubated with 100 μL MTT (Serva, Heidelberg, Germany) solution (0.5 mg/mL) for 3 h at 5% CO2 and 37 °C. Finally, the reagent was discarded and replaced with 100 μL DMSO. The optical density was measured at a wavelength of 570 nm (Tecan, Infinite F50, Magellan reader control and data analysis software, Mennedov, Switzerland). The percentage cell viability data were obtained by normalization of the optical density (OD) values for all groups to the OD of the control group.

male albino rats = test: In vivo toxicity evaluation: serum hepatic and renal biochemical parameters in rats; parameters: species or system rat; details: 20 mg/kg/day orally twice weekly for 6 weeks; for ALP / ALT / AST / Albumin / Bilirubin / Cholesterol / Triglyceride: rat serum; for Overall in vivo toxicity assessment: rats, versus healthy control group
Source text: Before the assessment of the anticancer activity of the compounds, in the present study, we examined their toxicity in vivo on normal tissues.
Male albino rats (150 g average weight) were purchased from the animal house of the Institute of Graduate Studies and Research, Alexandria University, Egypt. The animals were housed under standardized environmental conditions, fed with a standard diet and water, and left to acclimate to the environment for one week prior to inclusion in the experiment. All of the animal experiments were conducted in accordance with the guidelines for the care and use of laboratory animals of the National Institutes of Health (NIH 1985). The experimental procedures employed were ethically reviewed and approved by the Institutional Animal Care and Use Committee (IACUC) of Alexandria University (Ethical approval number of the study: AU14-200922-1-8A) and “declaration of Helsinki”. Four groups of rats were administered 20 mg/kg/day of compounds 5, 6, and 7 orally twice weekly for 6 weeks. Liver enzymes and other liver biomarkers together with creatinine and urea were measured (Table 1).
The collected blood was allowed to clot, the serum was separated at 2000× g, and the biochemical markers of hepatic damage, including serum ALT, AST [33], ALP [34], albumin [35], total bilirubin [36], TG [37], urea, creatinine, and total cholesterol, were estimated according to previously reported methods. These parameters were determined using available commercial kits (ARE) following the instructions of the manufacturer.

HT1080 cells = test: Cell viability, crystal violet staining, HT1080; format: cell-based, human; details: for first concentration with significant reduction in cell viability / IC50: HT1080, 48 h; for first concentration with significant reduction in cell viability: versus control; for IC50: Homo sapiens, HT-1080
Procedure: as §1, §2, §3
(§5) Cervical Hela and HT-1080 cells (2 × 10^4 per well) were seeded in 96-well tissue culture plates in 100 μL cell culture medium. Cells were incubated for 48 h in triplicates with the compounds of interest. The cytotoxic effect was assessed by crystal violet staining and measured at 595 nm. To normalize cell viability values each plate included a triplicate of cells treated with DMSO, the vehicle of the compound to calculate 100% viable cells. At the same time, a triplicate of cells was simulated with a cytotoxic combination (200 ng/mL TNF, 200 ng/mL CD95L, 200 ng/mL TRAIL, 25 µg/mL CHX, 1% (w/v) sodium azide) to elucidate maximal cell death, and thus 0% viability. All other viability values were normalized depending on the averages of these triplicates and evaluated by the Graph Pad Prism 5 software (La Jolla, CA, USA).

Caco-2 cells = test: Cell viability, MTT assay, Caco-2; format: cell-based, human; details: for IC50: Homo sapiens
Procedure: as §1, §2, §3, §4

Hela cells = test: Cell viability, crystal violet staining, Hela; format: cell-based, human; details: 48 h; for first concentration with significant reduction in cell viability: versus control; for IC50: Homo sapiens, HeLa
Procedure: as §1, §2, §3, §5

BCR-ABL tyrosine kinase = tested on: BCR-ABL tyrosine kinase; parameters: method as in earlier work; details: literature statement; cited from earlier work
A549 cells [2] = test: Apoptosis assay, annexin V flow cytometry; format: cell-based, human
Procedure: (§6) In order to exclude apoptotic effects as a mechanism for the observed anticancer activity of the compounds and according to the in silico results, induction of apoptosis by compound 7 was examined using an annexin V flow cytometry assay (Figure 10a).
(§7) Figure 10 (a) Apoptosis analysis in A549 cells following treatment of cells with compound 7 at IC50 concentration. Flowcytometry was conducted using Alexa Fluor 488 annexin V conjugate. […] (b) Western blot analysis showing cleaved caspase-3 protein expression level. […] (c) Proliferation analysis (Ki67) in A549 cells following treatment cells with compound 7 at IC50 concentration. The analysis was done using flow cytometry and the Ki-67 FITC antibody.
For evaluating cell apoptosis, cells were plated in 6-well plates at a density of 2 × 10^4 cells per well. After incubation for 24 h, 70% confluency is reached. Cells were then labelled using the FITC Annexin V apoptosis detection kit I (BD Pharminogen, San Diego, CA, USA) according to manufacturer’s instructions (Cell Signaling Technology; Flow Cytometry, Methanol Permeabilization Protocol) and analysed by using BD FACS Calibur flow cytometry and Cell Quest™ software.

[3] = tested on: Ki67 expression in A549 cells; test: Proliferation assay, Ki67 expression by flow cytometry; format: cell-based, human; details: A549, IC50 concentration, 48 h; control cells 85.61%
Procedure: as §7
Ki67 expression was determined using a flow cytometry assay. […] The percentage of cells labelled using Ki67 antibody in the control cells was 85.61%, whereas those labelled with the same antibody following treatment with compound 7 was 68.06%.
For evaluating the proliferation status of cells, cells were plated in 6-well plates at a density of 2 × 10^4 cells per well for the cell proliferation assay. After incubation for 24 h, 70% confluency is reached.

[4] = tested on: cleaved caspase-3 protein; test: Western blot of cleaved caspase-3 protein expression; format: cell-based; details: IC50 concentration, versus untreated cells
Procedure: as §6, §7
A western blot assay was carried out to examine cleaved caspase-3 protein expression levels following the different treatments with different concentrations of the compound that were employed in the current study. Cells (5 × 10^5 cells/well) were seeded in 12-well plates and were induced the next day with the compounds of interest for 48 h. […] The proteins of interest were detected with a suitable primary antibody (Anti-Caspase-3, 17,19 kD, Rabbit polyclonal ≠ 9661, from Cell Signaling Technology, Beverly, MA, USA) and horseradish peroxidase conjugated secondary antibodies (Dako, Glostrup, Denmark and Cell Signaling Technology, Beverly, MA, USA).

COc1ccc(C=NNc2ncnc3c2cnn3-c2ccccc2)cc1 [Compound 5, 2-(4-Methoxybenzylidene)-1-(1-phenyl-1H-pyrazolo[3,4-d]pyrimidin-4-yl)hydrazine]
first concentration with significant reduction in cell viability (A549 cells [1]): 50 µM | IC50 (A549 cells [1]): 148 µM | ALP (male albino rats): 2.1 ± 0.52 U/L | ALT (male albino rats): 43 ± 5.2 U/L | AST (male albino rats): 102 ± 8.7 U/L | Albumin (male albino rats): 4.4 ± 0.37 g/dL | Bilirubin (male albino rats): 0.11 ± 0.12 mg/dL | Cholesterol (male albino rats): 71 ± 4.8 mg/dL | Triglyceride (male albino rats): 72 ± 8.6 mg/dL | Overall in vivo toxicity assessment (male albino rats): safe compounds comparable to the healthy control group | first concentration with significant reduction in cell viability (HT1080 cells): 50 µM | IC50 (HT1080 cells): 96.2 µM | IC50 (Caco-2 cells; Caco-2, 48 h): 76.9 µM | first concentration with significant reduction in cell viability (Hela cells; Hela): 50 µM | IC50 (Hela cells): 74.8 µM

COc1ccc(/C=N/Nc2ncnc3c2cnn3-c2ccccc2)cc1OC [Compound 6]
effect on cell viability (A549 cells [1]; A549, up to 500 µM, 48 h, data not shown): did not show any significant decrease in the cell viability | ALP (male albino rats): 2 ± 0.12 U/L | ALT (male albino rats): 44 ± 5.7 U/L | AST (male albino rats): 100 ± 9.8 U/L | Albumin (male albino rats): 4.6 ± 1.8 g/dL | Bilirubin (male albino rats): 0.12 ± 0.12 mg/dL | Cholesterol (male albino rats): 69 ± 7.8 mg/dL | Triglyceride (male albino rats): 75 ± 6.5 mg/dL | Overall in vivo toxicity assessment (male albino rats): safe compounds comparable to the healthy control group | inhibition of BCR-ABL tyrosine kinase (BCR-ABL tyrosine kinase): capable of inhibiting BCR-ABL tyrosine kinase | effect on cell viability (HT1080 cells; HT1080, up to 500 µM, 48 h, data not shown): did not show any significant decrease in the cell viability | effect on cell viability (Caco-2 cells; Caco-2, up to 500 µM, 48 h, data not shown): did not show any significant decrease in the cell viability | effect on cell viability (Hela cells; Hela, up to 500 µM, data not shown): did not show any significant decrease in the cell viability

COc1cc(C=NNc2ncnc3c2cnn3-c2ccccc2)cc(OC)c1OC [Compound 7, 2-(3,4,5-Trimethoxybenzylidene)-1-(1-phenyl-1H-pyrazolo[3,4-d]pyrimidin4yl)hydrazine]
first concentration with significant reduction in cell viability (A549 cells [1]): 1 µM | IC50 (A549 cells [1]): 68.8 µM | ALP (male albino rats): 1.8 ± 0.88 U/L | ALT (male albino rats): 42 ± 7.2 U/L | AST (male albino rats): 103 ± 8.8 U/L | Albumin (male albino rats): 4.6 ± 1.1 g/dL | Bilirubin (male albino rats): 0.11 ± 0.32 mg/dL | Cholesterol (male albino rats): 71 ± 5.8 mg/dL | Triglyceride (male albino rats): 77 ± 7.5 mg/dL | Overall in vivo toxicity assessment (male albino rats): safe compounds comparable to the healthy control group | effect on viability of cells through apoptosis (A549 cells [2]; A549, 24 h incubation, versus untreated group): no significant effect | percentage gating in the lower left quadrant (annexin V) (A549 cells [2]; A549, IC50 concentration, control untreated 97.8): 97.58% | first concentration with significant reduction in cell viability (HT1080 cells): 25 µM | IC50 (HT1080 cells): 43.8 µM | first concentration with significant reduction in cell viability (Caco-2 cells; Caco-2, 48 h, versus control): 1 µM | IC50 (Caco-2 cells; Caco-2, 48 h): 73.1 µM | first concentration with significant reduction in cell viability (Hela cells; Hela): 12.5 µM | IC50 (Hela cells): 17.5 µM | percentage of cells labelled using Ki67 antibody [3]: 68.06% | change in cleaved caspase-3 protein expression level [4]: no significant change
